Experimental data taken from patent US20180338980A1, “AROMATIC SULFONAMIDE DERIVATIVES” (BAYER PHARMA AKTIENGESELLSCHAFT, priority 2015, published 2018).

Assays:
Format in all cases: cell-based
mouse P2X4 receptors = biological target: T1, mouse P2X4 receptors (Mus musculus, UniProt Q9JJX6); assay: Assay B: mouse P2X4 receptor cell line, Fluo8 fluorescence FLIPR (agonist Bz-ATP at EC50); conditions: HEK mouse P2X4 cell line, agonist Bz-ATP at EC50, average
T1 construct: host or cells: HEK 293 (recombinant, constitutively expressing)
T1 sequence (Q9JJX6 1-388): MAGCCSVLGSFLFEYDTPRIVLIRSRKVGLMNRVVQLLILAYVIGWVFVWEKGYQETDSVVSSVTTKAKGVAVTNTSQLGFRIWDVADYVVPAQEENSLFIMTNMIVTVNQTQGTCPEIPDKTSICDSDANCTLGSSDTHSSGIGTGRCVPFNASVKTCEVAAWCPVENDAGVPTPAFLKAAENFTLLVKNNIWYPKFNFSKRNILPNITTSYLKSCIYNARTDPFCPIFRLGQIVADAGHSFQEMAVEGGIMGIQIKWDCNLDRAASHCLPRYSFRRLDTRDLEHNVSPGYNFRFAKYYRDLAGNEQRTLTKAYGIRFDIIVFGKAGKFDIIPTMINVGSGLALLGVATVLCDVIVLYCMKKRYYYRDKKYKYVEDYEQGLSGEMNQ
Protocol: The identification of agonists and antagonists of the P2X4 receptor from humans and […] also the quantification of the activity of the compounds of the invention was performed by use of recombinant cell lines. […] The test cell lines constitutively express the mouse or human P2X4 receptors. Stimulation of the receptors with an agonist leads to a conformational change of P2X4 and influx of extracellular calcium ions through the ion channel. The cytoplasmatic calcium transient is detected via the calcium sensitive dye Fluo8 for the mouse P2×4 cell line or in case of the human P2×4 cell line a stably expressed calcium-sensitive photoprotein, mitochondrial photina, which, after reconstitution with the cofactor coelenterazine, emits light in dependence of calcium binding [Bovolenta S, Foti M, Lohmer S, Corazza S., J Biomol Screen. […] The strength of Fluo8 fluorescence signal or photina luminescence signal corresponds to the level of receptor activation. An inhibitor would decrease the signal depending on its potency and concentration.
On the day of the assay medium is exchanged by Fluo8 containing buffer for 30 minutes. In the fluorescence reader (FLIPR) test substances in various concentrations are added for 10 minutes. After baseline measurement the agonist Bz-ATP at EC50 concentration is applied and fluorescence is measured immediately.

P2X4 [1] = biological target: T2, P2X4 (Homo sapiens, UniProt Q99571); assay: Assay A: human P2X4 receptor cell line, FLIPR calcium assay (Fluo-8, agonist Bz-ATP at EC80); parameters: host or cells: HEK 293 (recombinant, constitutively expressing; with mitochondrial photina in Assay B); conditions: HEK human P2X4 cells, Fluo-8 FLIPR; for IC50: Bz-ATP at EC80, average values; for Emax: percentage of maximal inhibition, read-out: human P2X4 Assay A avg Efficacy
T2 sequence (Q99571 1-388): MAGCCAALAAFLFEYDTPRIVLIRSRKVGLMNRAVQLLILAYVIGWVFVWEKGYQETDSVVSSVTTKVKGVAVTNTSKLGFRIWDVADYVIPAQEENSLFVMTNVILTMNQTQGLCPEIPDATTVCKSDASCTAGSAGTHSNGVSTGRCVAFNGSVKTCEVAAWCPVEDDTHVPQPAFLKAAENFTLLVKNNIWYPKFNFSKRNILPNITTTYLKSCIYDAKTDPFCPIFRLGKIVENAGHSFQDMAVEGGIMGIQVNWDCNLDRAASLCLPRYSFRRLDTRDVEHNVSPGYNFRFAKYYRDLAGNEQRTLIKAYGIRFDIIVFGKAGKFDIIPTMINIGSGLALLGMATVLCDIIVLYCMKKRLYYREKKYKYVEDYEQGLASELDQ
Method in brief: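 Antagonism read as inhibition of the calcium response to EC80 Bz-ATP, by peak-over-basal Fluo-8 fluorescence over 120 s, normalized to DMSO wells. Human P2X4-HEK cells, dye-loaded 30 min in probenecid-containing HBSS/HEPES pH 7.4, received compound 30 min beforehand at room temperature, 0.5% DMSO final. Triplicates fitted for IC50, maximal inhibition and Hill slope.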

P2X4 [2] = biological target: T2, P2X4; assay: Assay B: human P2X4 receptor cell line, mitochondrial photina luminescence (agonist Bz-ATP at EC50); parameters: host or cells: HEK 293 (recombinant, constitutively expressing; with mitochondrial photina in Assay B); conditions: HEK human P2X4 cell line, photina luminescence, agonist Bz-ATP at EC50, average; for Emax: read-out: human P2X4 Assay B avg Efficacy
Method in brief: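 Bz-ATP at its EC50 activates human P2X4 stably expressed in a cell line that also carries the calcium-sensitive photoprotein mitochondrial photina (coelenterazine cofactor). Light emitted on calcium influx is measured straight away in a luminometer. Reduced luminescence indicates antagonism.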

Cc1cc(NC(=O)Cc2ccccc2)cc(S(N)(=O)=O)c1Oc1cccc(Cl)c1 [Example 271, N-[4-(3-Chlorophenoxy)-3-methyl-5-sulfamoylphenyl]-2-phenylacetamide]
IC50 (mouse P2X4 receptors): > 16000 nM
mouse P2X4 Assay B avg Efficacy (mouse P2X4 receptors): 31%
IC50 (P2X4 [1]): 81 nM
Emax (P2X4 [1]): 84%

NS(=O)(=O)c1cc(NC(=O)Cc2cccc(F)c2Cl)ccc1Oc1cccc(Cl)c1 [Example 098, 2-(2-Chloro-3-fluorophenyl)-N-[4-(3-chlorophenoxy)-3-sulfamoylphenyl]acetamide]
IC50 (mouse P2X4 receptors): 387 nM
mouse P2X4 Assay B avg Efficacy (mouse P2X4 receptors): 69%
IC50 (P2X4 [1]): 7 nM
Emax (P2X4 [1]): 95%
IC50 (P2X4 [2]): 25 nM
Emax (P2X4 [2]): 57%

NS(=O)(=O)c1cc(NC(=O)Cc2ccccc2Cl)ccc1Oc1ccccn1 [Example 013, 2-(2-Chlorophenyl)-N-[4-(pyridin-2-yloxy)-3-sulfamoylphenyl]acetamide]
IC50 (mouse P2X4 receptors): > 16000 nM
mouse P2X4 Assay B avg Efficacy (mouse P2X4 receptors): 31%
Emax (P2X4 [1]): 93%
Emax (P2X4 [2]): 71%

NS(=O)(=O)c1cc(NC(=O)Cc2ccccc2)ccc1OCc1ccccc1 [Example 146, N-[4-(Benzyloxy)-3-sulfamoylphenyl]-2-phenylacetamide]
IC50 (mouse P2X4 receptors): > 50000 nM
mouse P2X4 Assay B avg Efficacy (mouse P2X4 receptors): 7%
IC50 (P2X4 [2]): 314 nM
Emax (P2X4 [2]): 71%

NS(=O)(=O)c1cc(NC(=O)Cc2ccccc2Cl)ccc1OCc1ccccc1F [Example 137, 2-(2-Chlorophenyl)-N-{4-[(2-fluorobenzyl)oxy]-3-sulfamoylphenyl}acetamide]
IC50 (mouse P2X4 receptors): 1750 nM
mouse P2X4 Assay B avg Efficacy (mouse P2X4 receptors): 66%
IC50 (P2X4 [1]): 35 nM
Emax (P2X4 [1]): 88%
IC50 (P2X4 [2]): 33 nM
Emax (P2X4 [2]): 98%

N#Cc1ccc(COc2ccc(NC(=O)Cc3ccccc3Cl)cc2S(N)(=O)=O)cc1 [Example 138, 2-(2-Chlorophenyl)-N-{4-[(4-cyanobenzyl)oxy]-3-sulfamoylphenyl}acetamide]
IC50 (mouse P2X4 receptors): 9390 nM
mouse P2X4 Assay B avg Efficacy (mouse P2X4 receptors): 41%
IC50 (P2X4 [1]): 4 nM
Emax (P2X4 [1]): 67%
IC50 (P2X4 [2]): 27 nM
Emax (P2X4 [2]): 56%

NS(=O)(=O)c1cc(NC(=O)Cc2ccccc2Cl)ccc1Oc1cccc(Cl)c1 [Example 187, N-[4-(3-Chlorophenoxy)-3-sulfamoylphenyl]-2-(2-chlorophenyl)acetamide]
mouse P2X4 Assay B avg Efficacy (mouse P2X4 receptors): 41%

NS(=O)(=O)c1cc(NC(=O)Cc2ccccc2Cl)ccc1OCc1ccccc1 [Example 141, N-[4-(Benzyloxy)-3-sulfamoylphenyl]-2-(2-chlorophenyl)acetamide]
IC50 (mouse P2X4 receptors): 1130 nM
mouse P2X4 Assay B avg Efficacy (mouse P2X4 receptors): 66%
Emax (P2X4 [1]): 96%
Emax (P2X4 [2]): 69%

NS(=O)(=O)c1cc(NC(=O)Cc2ccccc2Cl)ccc1Oc1cncc(Cl)c1 [Example 029, 2-(2-Chlorophenyl)-N-{4-[(5-chloropyridin-3-yl)oxy]-3-sulfamoylphenyl}acetamide]
mouse P2X4 Assay B avg Efficacy (mouse P2X4 receptors): 50%

NC(=O)c1cccc(Oc2ccc(NC(=O)Cc3ccccc3Cl)cc2S(N)(=O)=O)c1 [Example 017, 3-(4-{[(2-Chlorophenyl)acetyl]amino}-2-sulfamoylphenoxy)benzamide]
IC50 (mouse P2X4 receptors): 805 nM
mouse P2X4 Assay B avg Efficacy (mouse P2X4 receptors): 44%
IC50 (P2X4 [1]): 61 nM
Emax (P2X4 [1]): 86%
IC50 (P2X4 [2]): 55 nM
Emax (P2X4 [2]): 65%

NS(=O)(=O)c1cc(NC(=O)Cc2ccccc2Cl)ccc1OCc1cccc(Cl)c1 [Example 139, N-{4-[(3-Chlorobenzyl)oxy]-3-sulfamoylphenyl}-2-(2-chlorophenyl)acetamide]
IC50 (mouse P2X4 receptors): 612 nM
mouse P2X4 Assay B avg Efficacy (mouse P2X4 receptors): 52%
IC50 (P2X4 [1]): 26 nM
Emax (P2X4 [1]): 82%
IC50 (P2X4 [2]): 43 nM
Emax (P2X4 [2]): 63%

COC(=O)c1ccc(Oc2ccc(NC(=O)Cc3ccccc3Cl)cc2S(N)(=O)=O)cc1 [Example 273, Methyl 4-(4-{[(2-chlorophenyl)acetyl]amino}-2-sulfamoylphenoxy)benzoate]
IC50 (mouse P2X4 receptors): 149 nM
mouse P2X4 Assay B avg Efficacy (mouse P2X4 receptors): 45%
IC50 (P2X4 [1]): 18 nM
Emax (P2X4 [1]): 78%

NS(=O)(=O)c1cc(NC(=O)Cc2cc(F)ccc2Cl)ccc1OCC1CCOCC1 [Example 163, 2-(2-Chloro-5-fluorophenyl)-N-[3-sulfamoyl-4-(tetrahydro-2H-pyran-4-ylmethoxy)phenyl]acetamide]
IC50 (mouse P2X4 receptors): 3500 nM
mouse P2X4 Assay B avg Efficacy (mouse P2X4 receptors): 65%
Emax (P2X4 [1]): 68%
Emax (P2X4 [2]): 61%

NS(=O)(=O)c1cc(NC(=O)Cc2ccccc2Cl)ccc1OCC1CCCC1 [Example 160, 2-(2-Chlorophenyl)-N-[4-(cyclopentylmethoxy)-3-sulfamoylphenyl]acetamide]
IC50 (mouse P2X4 receptors): 1030 nM
mouse P2X4 Assay B avg Efficacy (mouse P2X4 receptors): 62%
IC50 (P2X4 [1]): 10 nM
Emax (P2X4 [1]): 71%
IC50 (P2X4 [2]): 40 nM
Emax (P2X4 [2]): 67%

NS(=O)(=O)c1cc(NC(=O)Cc2ccc(C(F)(F)F)cc2)ccc1OCc1ccccn1 [Example 152, N-[4-(Pyridin-2-ylmethoxy)-3-sulfamoylphenyl]-2-[4-(trifluoromethyl)phenyl]acetamide]
IC50 (mouse P2X4 receptors): > 50000 nM
mouse P2X4 Assay B avg Efficacy (mouse P2X4 receptors): 35%
IC50 (P2X4 [1]): > 25000 nM
Emax (P2X4 [1]): 47%
IC50 (P2X4 [2]): 431 nM
Emax (P2X4 [2]): 89%

Cc1cc(NC(=O)Cc2ccccc2Cl)cc(S(N)(=O)=O)c1Oc1cccc(Cl)c1 [Example 270, N-[4-(3-Chlorophenoxy)-3-methyl-5-sulfamoylphenyl]-2-(2-chlorophenyl)acetamide]
IC50 (mouse P2X4 receptors): 1240 nM
mouse P2X4 Assay B avg Efficacy (mouse P2X4 receptors): 44%
IC50 (P2X4 [1]): 104 nM
Emax (P2X4 [1]): 94%

COC(=O)c1ccccc1Oc1ccc(NC(=O)Cc2ccccc2Cl)cc1S(N)(=O)=O [Example 272, Methyl 2-(4-{[(2-chlorophenyl)acetyl]amino}-2-sulfamoylphenoxy)benzoate]
IC50 (mouse P2X4 receptors): > 16000 nM
mouse P2X4 Assay B avg Efficacy (mouse P2X4 receptors): 25%
IC50 (P2X4 [1]): 19 nM
Emax (P2X4 [1]): 73%

NS(=O)(=O)c1cc(NC(=O)Cc2c(F)cccc2Cl)ccc1Oc1cccc(Cl)c1 [Example 100, 2-(2-Chloro-6-fluorophenyl)-N-[4-(3-chlorophenoxy)-3-sulfamoylphenyl]acetamide]
mouse P2X4 Assay B avg Efficacy (mouse P2X4 receptors): 43%

CC(C(=O)Nc1ccc(Oc2cccc(Cl)c2)c(S(N)(=O)=O)c1)c1c(F)cccc1Cl (centres unmarked) [Example 258, 2-(2-Chloro-6-fluorophenyl)-N-[4-(3-chlorophenoxy)-3-sulfamoylphenyl]propanamide]
IC50 (mouse P2X4 receptors): 260 nM
mouse P2X4 Assay B avg Efficacy (mouse P2X4 receptors): 52%
IC50 (P2X4 [1]): 779 nM
Emax (P2X4 [1]): 76%

CC(C)(O)c1ccccc1Oc1ccc(NC(=O)Cc2ccccc2Cl)cc1S(N)(=O)=O [Example 275, 2-(2-Chlorophenyl)-N-{4-[2-(2-hydroxypropan-2-yl)phenoxy]-3-sulfamoylphenyl}acetamide]
mouse P2X4 Assay B avg Efficacy (mouse P2X4 receptors): 44%

NS(=O)(=O)c1cc(NC(=O)Cc2ccccn2)ccc1Oc1cccc(Cl)c1 [Example 185, N-[4-(3-Chlorophenoxy)-3-sulfamoylphenyl]-2-(pyridin-2-yl)acetamide]
IC50 (mouse P2X4 receptors): > 16000 nM
mouse P2X4 Assay B avg Efficacy (mouse P2X4 receptors): 22%
IC50 (P2X4 [2]): 567 nM
Emax (P2X4 [2]): 77%
